Source: patent US20180147223A1 (priority 2016, published 2018)
Where “and” joins values, the source holds several entries; their conditions need not be identical. Identical values can stand only once.

How the values were obtained:
BoNT/A LC = BoNT/A LC (Clostridium botulinum, UniProt P0DPI0); test: biochemical; format: biochemical, C. botulinum; details: for inhibition at 100 µM: read-out: % of Inhibition at 100 μM
[1] = biological target: recombinant light chain A (rLCA) (Clostridium botulinum, UniProt P0DPI0); test: biochemical; design: species or system C. botulinum
Sequence of recombinant light chain A (rLCA) (P0DPI0 2-448 limits assumed): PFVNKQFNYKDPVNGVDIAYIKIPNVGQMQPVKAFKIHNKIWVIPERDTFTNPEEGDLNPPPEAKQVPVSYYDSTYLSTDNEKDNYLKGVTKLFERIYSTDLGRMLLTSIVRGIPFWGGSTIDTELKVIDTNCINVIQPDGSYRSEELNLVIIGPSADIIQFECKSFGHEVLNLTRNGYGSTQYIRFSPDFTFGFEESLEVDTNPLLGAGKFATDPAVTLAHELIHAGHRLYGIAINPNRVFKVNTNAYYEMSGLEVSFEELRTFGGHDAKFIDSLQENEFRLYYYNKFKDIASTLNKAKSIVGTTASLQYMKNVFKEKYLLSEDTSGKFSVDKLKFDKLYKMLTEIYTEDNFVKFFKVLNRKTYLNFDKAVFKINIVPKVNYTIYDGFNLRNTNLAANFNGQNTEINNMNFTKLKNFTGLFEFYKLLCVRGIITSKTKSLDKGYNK

LC of BoNT/A = LC of BoNT/A (Clostridium botulinum, UniProt P0DPI0); test: biochemical; format: biochemical, C. botulinum
Sequence of LC of BoNT/A (P0DPI0 2-448 limits assumed): as above

BoNT/A = BoNT/A (Clostridium botulinum, UniProt P0DPI0); format: cell-based, C. botulinum
Sequence of BoNT/A (P0DPI0 whole entry, looked up): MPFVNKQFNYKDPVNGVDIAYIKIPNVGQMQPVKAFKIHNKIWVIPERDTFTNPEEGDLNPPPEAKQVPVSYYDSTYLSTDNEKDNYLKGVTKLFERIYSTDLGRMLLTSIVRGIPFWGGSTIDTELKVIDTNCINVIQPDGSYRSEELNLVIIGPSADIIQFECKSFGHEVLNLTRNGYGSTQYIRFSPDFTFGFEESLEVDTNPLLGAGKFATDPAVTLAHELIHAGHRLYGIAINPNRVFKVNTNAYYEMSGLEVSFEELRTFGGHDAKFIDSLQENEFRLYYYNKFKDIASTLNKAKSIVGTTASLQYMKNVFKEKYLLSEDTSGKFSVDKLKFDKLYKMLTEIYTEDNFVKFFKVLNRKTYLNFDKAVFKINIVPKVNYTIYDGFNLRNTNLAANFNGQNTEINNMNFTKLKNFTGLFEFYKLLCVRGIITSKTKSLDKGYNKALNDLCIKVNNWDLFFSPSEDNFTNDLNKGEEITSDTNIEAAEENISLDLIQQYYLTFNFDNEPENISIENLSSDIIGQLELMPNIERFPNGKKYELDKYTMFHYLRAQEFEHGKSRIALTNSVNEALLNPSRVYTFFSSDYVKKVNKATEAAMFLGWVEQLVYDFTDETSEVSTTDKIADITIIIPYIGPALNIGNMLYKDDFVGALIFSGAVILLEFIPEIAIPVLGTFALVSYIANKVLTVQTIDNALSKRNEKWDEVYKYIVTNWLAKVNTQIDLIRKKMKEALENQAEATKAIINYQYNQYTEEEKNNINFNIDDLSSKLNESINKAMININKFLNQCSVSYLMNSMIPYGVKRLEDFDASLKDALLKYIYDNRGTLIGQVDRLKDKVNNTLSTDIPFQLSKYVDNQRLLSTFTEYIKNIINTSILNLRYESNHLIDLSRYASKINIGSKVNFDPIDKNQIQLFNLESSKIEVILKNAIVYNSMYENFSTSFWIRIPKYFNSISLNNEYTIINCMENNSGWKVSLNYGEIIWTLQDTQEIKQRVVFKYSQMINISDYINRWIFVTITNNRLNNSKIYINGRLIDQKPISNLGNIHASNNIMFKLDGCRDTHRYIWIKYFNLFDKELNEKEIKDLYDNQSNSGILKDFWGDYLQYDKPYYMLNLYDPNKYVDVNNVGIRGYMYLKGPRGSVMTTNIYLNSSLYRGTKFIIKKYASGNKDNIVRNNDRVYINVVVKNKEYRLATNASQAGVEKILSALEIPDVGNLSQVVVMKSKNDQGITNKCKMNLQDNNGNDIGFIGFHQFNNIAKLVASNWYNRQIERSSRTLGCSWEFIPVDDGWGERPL

Sequence of BoNT/A LC (P0DPI0 2-448 limits assumed): as the sequence (P0DPI0 2-448 limits assumed) above

O=c1ccc2cc3c(-c4ccc([N+](=O)[O-])cc4)coc3cc2o1 [Compound 1, 3-(4-nitrophenyl)-7H-furo[3,2-g][1]benzopyran-7-one]
IC50 (BoNT/A LC): 6.5 µM
concentration at which near 100% inhibition (saturation) is reached (BoNT/A LC): about 81 μM
inhibition at 100 µM (BoNT/A LC): 100%
IC50 [1]: 10 µM
Vmax (LC of BoNT/A): 2.064 RFU/s and 2.79 RFU/s and 2.55 RFU/s
type of inhibition (LC of BoNT/A): non-competitive inhibition
α (LC of BoNT/A): 2.76 (±1.12) and 1.38 (±0.33) and 1.8 (±0.30)
α′ (LC of BoNT/A): 1.705 (±0.79) and 1.155 (±0.18) and 1.24 (±0.12)
Ki (LC of BoNT/A; Ki value): 14.2 µM and 17.5 µM and 14.7 µM
inhibition of SNAP-25 cleavage by BoNT/A in M17 cells (BoNT/A): showed inhibition
inhibition of endogenous SNAP-25 cleavage in M-17-TR2 cells (BoNT/A): significantly inhibit

O=c1oc2c(O)c(O)cc3c(=O)oc4c(O)c(O)cc1c4c23 [Compound 2, 2,3,7,8-Tetrahydroxy-chromeno[5,4,3-cde]chromene-5,10-dione]
IC50 (BoNT/A LC): 0.65 ± 0.032 µM
inhibition at 100 µM (BoNT/A LC): 101%
IC50 [1]: 1.62 µM

O=C1C=C2CC3(O)COc4c(ccc(O)c4O)C3=C2C=C1O (stereo not drawn) [Compound 3, 3,4,6a, 10-Tetrahydroxy-6,7-dihydroindeno[2,1-c]chromen-9-one]
IC50 (BoNT/A LC): 2.97 ± 0.048 µM
inhibition at 100 µM (BoNT/A LC): 92.7%
IC50 [1]: 0.86 µM
inhibition of endogenous SNAP-25 cleavage in M-17-TR2 cells (BoNT/A): significantly inhibit

Cc1cc2c(C(C)C)c(O)c(O)c(C=O)c2c(O)c1-c1c(C)cc2c(C(C)C)c(O)c(O)c(C=O)c2c1O [Compound 4, 2, 2′-Bis(formyl-1,6,7-trihydroxy-5-isopropyl-3-methylnaphthalene)]
IC50 (BoNT/A LC): 3.15 ± 0.043 µM
inhibition at 100 µM (BoNT/A LC): 100%
IC50 [1]: 11.4 µM

CCCCCCCCCCCC1=C(O)C(=O)C=C(O)C1=O [Compound 5, 2,5-dihydroxy-3-undecylcyclohexa-2,5-diene-1,4-dione]
IC50 (BoNT/A LC): 4.5 ± 0.035 µM
inhibition at 100 µM (BoNT/A LC): 100%
IC50 [1]: 13.5 µM

O=C1c2ccccc2C(=O)c2c(O)c(O)cc(O)c21 [Compound 6, 1,2,4-trihydroxyanthracene-9,10-dione]
IC50 (BoNT/A LC): 4.5 ± 0.0091 µM
inhibition at 100 µM (BoNT/A LC): 100%
IC50 [1]: 11.6 µM
inhibition of endogenous SNAP-25 cleavage in M-17-TR2 cells (BoNT/A): significantly inhibit

O=C(O)CCCCC1CCSS1 (stereo not drawn) [Compound 7, 5-(1,2-Dithiolan-3-yl)-pentanoic acid]
IC50 (BoNT/A LC): 5.06 ± 0.055 µM
inhibition at 100 µM (BoNT/A LC): 90.5%
IC50 [1]: > 20 µM

Cc1c(C(=O)O)c(O)cc2c1C(=O)c1c(O)c([C@@H]3O[C@H](CO)[C@@H](O)[C@H](O)[C@H]3O)c(O)c(O)c1C2=O [Compound 8, carminic acid]
IC50 (BoNT/A LC): 6.8 ± 0.035 µM
inhibition at 100 µM (BoNT/A LC): 85.1%
IC50 [1]: > 20 µM

O=c1oc2c3c4c(cc2c2c1CCC2)CCCN4CCC3 [Compound 9, 2,3,6,7,10,11-Hexahydro-1H,5H-cyclopenta[3,4][1]benzopyrano[6,7,8-ij]quinolizin-12(9H)-one]
IC50 (BoNT/A LC): 9.3 ± 1.59 µM
inhibition at 100 µM (BoNT/A LC): 83.3%
IC50 [1]: > 20 µM
inhibition of endogenous SNAP-25 cleavage in M-17-TR2 cells (BoNT/A): significantly inhibit

O=c1c(O)c(-c2ccc(O)c(O)c2)oc2c(O)c(O)cc(O)c12 [Compound 10, 2-(3,4-dihydroxyphenyl)-3,5,7,8-tetrahydroxychromen-4-one]
IC50 (BoNT/A LC): 0.27 ± 0.0049 µM
inhibition at 100 µM (BoNT/A LC): 104%
IC50 [1]: 0.239 µM
inhibition of endogenous SNAP-25 cleavage in M-17-TR2 cells (BoNT/A): significantly inhibit
